In US4389394A, “Methods for reducing dental caries” (Talres Development (N.A.) N.V., priority 1978, dated 1983):
“Also recorded” adds a separate entry of the source.

Experiments:
[1] = system: Streptococcus mutans NCTC 10832; experiment: (A) Effect on reduction of pH by Streptococcus mutans; assay type: cell-based; settings: for pH: 0.05 molar each saccharide, 37° C; for Mean pH: Duncan Procedure sub-sets, amino acids where named in the solution
Excerpt: Mouth flora such as S. mutans cause dental caries by producing acid which erodes the tooth enamel. The cells exude a polysaccharide which firmly adheres them to the tooth surfaces as plaque, thus enhancing the local erosion by the acid. The effect of chlorodeoxysucroses on acid production by S. mutans in sucrose solutions was studied in comparison with the effect produced by xylitol, an agent proposed as a caries preventative.
(§1) Plain aqueous solutions were used and also solutions containing amino acids (protein hydrolysate) 1% w/v to approximate the buffering effect of natural saliva. Control experiments were effected using no saccharide in order to illustrate the endogenous metabolism of the organism. Each experiment was quadruplicated and was run at 37° C. The pH was measured at 0, 0.5, 1, 1.5,2, 3 and 4 hours.

S. mutans [2] = experiment: (B) Adherence to teeth: deposition of suspended cells on to glass (Magiscan image analyser); assay type: cell-based, Streptococcus mutans; settings: for Coverage (%) after 0.5 h / Coverage (%) after 4.0 h: mean of 40 determinations
Excerpt: (§2) The extent to which cells of S. mutans adhere to teeth was investigated using a recognized model system. Solutions of the same substances as in (A) were made up, and the degree of deposition of suspended cells on to glass was studied using a "Magiscan" image analyser (Talyer et al., 1978 Praktischen Metallographie, Sonderbande 8: 433-442).
Each reading is the mean of 40 determinations.

S. mutans [3] = experiment: Scanning electron microscopy of glass with adherent cells; assay type: cell-based, Streptococcus mutans; settings: sucrose medium; qualitative
S. mutans [4] = experiment: (C) Further tests on pH reduction; assay type: cell-based, Streptococcus mutans; settings: for Mean pH: 0.055 molar chlorodeoxy derivative, pooled data for 2, 3 and 4 hours, Duncan procedure
Protocol: as §1
Twelve sets of tests were carried out in the same way as described above at (A) but using solutions which were 0.055 molar in the respective chlorodeoxy derivative.
Solutions of the following were employed:
(i) Saline, negative control for endogenous metabolism
(ii) Sucrose, positive control
(iii) 6,1',6'-trichloro-6,1',6'-trideoxysucrose, compound no. 7.
(iv) Compound no. 7 plus sucrose.
(v) 1',6'-dichloro-1',6'-dideoxysucrose, compound no. 4
(vi) Compound no. 4 plus sucrose
(vii) 4,1',6'-trichloro-4,1',6'-trideoxygalactosucrose, Compound no. 5.
(viii) Compound no. 5 plus sucrose
(ix) 4,6,6'-trichloro-4,6,6'-trideoxygalactosucrose, Compound no. 6
(x) Compound no. 6 plus sucrose
(xi) 1'-chloro-1'-deoxysucrose, compound no. 1
(xii) Compound no. 1 plus sucrose
The acid production was monitored as before.

S. mutans [5] = experiment: (D) Further tests on adherence to teeth; assay type: cell-based, Streptococcus mutans; settings: for % coverage after 0.5 hours / % coverage after 4 hours: glass slide, 0.055 molar, Duncan procedure; for adherence of the cells: statement in words
Protocol: as §2
While recording the pH during the tests of (C), the adherence was monitored in the same way as in (B). The percentage coverage of a glass slide was determined at 0.5 and 4 hours for each solution, and the results treated by the Duncan procedure.

[6] = West German Offenlegungsschrift No. 2700036; cited from earlier work
dental plaque = experiment: (F) Human volunteers: acid production by dental plaque after mouthrinse (glucose pre-rinse); assay type: in vivo; settings: statement in words
Protocol: The compound 4,1',6'-trichloro-4,1',6'-trideoxygalactosucrose was selected as a suitable candidate for further testing. A mouthrinse in accordance with the invention was prepared using the selected compound as active ingredient. The level of the active ingredient was initially chosen to be such that the mouthrinse tasted the same as a 15% w/v solution of sucrose.
Six subjects were used, who were first acquainted with the available toxicological data and who subsequently agreed to take part in the tests. The subjects were instructed not to clean their teeth on their day of testing. At sampling time, 0 min, each subject took 5% w/v glucose mouthrinse for 2 minutes, then waited a further 8 minutes before the buccal and lingual plaque of one side of the jaw (upper and lower) was removed and placed on aluminium foil and sealed. […]
Samples (0.2 ml) were tested after admixture with 0.1 ml 5% w/v glucose and 0.2 ml sterile saliva. The pH was monitored in quadruplicated tests.
Pooling of data at different times was not justifiable, and the Duncan procedure could not be followed. Data was therefore analysed by computer using an `Analysis of Variance` program and a `Description of Populations` program.

[7] = 0.5 hours, in the presence of sucrose

SMILES: OC[C@H]1O[C@@](CO)(O[C@H]2O[C@H](CO)[C@@H](O)[C@H](O)[C@H]2O)[C@@H](O)[C@@H]1O [Sucrose, sucrose]
- pH ([1]; 0 h, no amino acids): 5.69
- pH ([1]; 0 h, with amino acids 1% w/v): 5.98
- pH ([1]; 0.5 h, no amino acids): 4.57
- pH ([1]; 0.5 h, with amino acids 1% w/v): 5.55
- pH ([1]; 1.0 h, no amino acids): 4.57
- pH ([1]; 1.0 h, with amino acids 1% w/v): 5.36
- pH ([1]; 1.5 h, no amino acids): 4.58
- pH ([1]; 1.5 h, with amino acids 1% w/v): 5.10
- pH ([1]; 2.0 h, no amino acids): 4.54
- pH ([1]; 2.0 h, with amino acids 1% w/v): 5.00
- pH ([1]; 3.0 h, no amino acids): 4.63
- pH ([1]; 3.0 h, with amino acids 1% w/v): 4.92
- pH ([1]; 4.0 h, no amino acids): 4.55
- pH ([1]; 4.0 h, with amino acids 1% w/v): 4.79
- Mean pH [1]: 4.57
- Coverage (%) after 0.5 h (S. mutans [2]; no amino acid): 37.28%
- Coverage (%) after 4.0 h (S. mutans [2]; no amino acid): 65.83%
- Coverage (%) after 0.5 h (S. mutans [2]; with amino acid): 31.89%
- Coverage (%) after 4.0 h (S. mutans [2]; with amino acid): 75.95%
- extracellular coating and size of clumps of adherent cells (S. mutans [3]): characteristically clumped and were coated with extracellular polysaccharide
- Mean pH (S. mutans [4]): 4.33
- % coverage after 0.5 hours (S. mutans [5]): 51.2%
- % coverage after 4 hours (S. mutans [5]): 69.2%

SMILES: O[C@@H]1[C@@H](O)[C@@H](O[C@]2(CCl)O[C@H](CCl)[C@@H](O)[C@@H]2O)O[C@H](CCl)[C@H]1Cl [compound 9, 4,6,1',6'-tetrachloro-4,6,1',6'-tetradeoxysucrose]
- sweetness relative to sucrose [6]: many times sweeter than sucrose

SMILES: OC[C@H]1O[C@H](O[C@]2(CCl)O[C@H](CCl)[C@@H](O)[C@@H]2O)[C@H](O)[C@@H](O)[C@@H]1O [Compound no. 4, 1',6'-dichloro-1',6'-dideoxysucrose]
- Mean pH (S. mutans [4]): 5.48
- adherence of the cells (S. mutans [5]; [7]): falling in the sub-set g which includes sucrose itself
- adherence of the cells (S. mutans [5]; 4 hours): did not reduce the adherence
- % coverage after 0.5 hours (S. mutans [5]): 51.6%
- % coverage after 4 hours (S. mutans [5]): 70.3%
- sweetness relative to sucrose [6]: many times sweeter than sucrose

SMILES: OC[C@H]1O[C@@](CCl)(O[C@H]2O[C@H](CO)[C@H](Cl)[C@H](O)[C@H]2O)[C@@H](O)[C@@H]1O [compound 3, 4-chloro-4-deoxy-α-D-galactopyranosyl-1-chloro-1-deoxy-β-D-fructofuranoside]
- sweetness relative to sucrose [6]: many times sweeter than sucrose

SMILES: OC[C@@H](O)[C@H](O)[C@@H](O)CO [Xylitol, xylitol]
- pH ([1]; 0 h, no amino acids): 5.94
- pH ([1]; 0.5 h, no amino acids): 5.50
- pH ([1]; 1.0 h, no amino acids): 5.42
- pH ([1]; 1.5 h, no amino acids): 5.39
- pH ([1]; 2.0 h, no amino acids): 5.32
- pH ([1]; 3.0 h, no amino acids): 5.38
- pH ([1]; 4.0 h, no amino acids): 5.37
- Mean pH [1]: 5.36
- effect on acid production ([1]; statement in words): never had a statistically significally effect; also recorded: non-cariogenic but not anti-cariogenic; also recorded: gave about the same mean pH as when carbohydrate was excluded
- degree of adhesion (S. mutans [2]; Mann Whitney U-test, statement in words): appeared to cause an increase rather than a decrease
- Coverage (%) after 0.5 h (S. mutans [2]; no amino acid): 42.31%
- Coverage (%) after 4.0 h (S. mutans [2]; no amino acid): 74.21%
- extracellular coating and size of clumps of adherent cells (S. mutans [3]): No such effect was observed

SMILES: O[C@@H]1[C@@H](O)[C@@H](O[C@]2(CCl)O[C@H](CCl)[C@@H](O)[C@@H]2O)O[C@H](CCl)[C@H]1O
- antiacidogenic effect on plaque (dental plaque): Statistically conclusive proof that the mouthrinse was evincing an anti-acidogenic effect was not available
- yield of plaque as perceived by subjects (dental plaque): increased the yield of plaque

SMILES: O[C@@H]1[C@@H](O)[C@@H](O[C@]2(CCl)O[C@H](CCl)[C@@H](O)[C@@H]2O)O[C@H](CCl)[C@@H]1Cl [compound 8, 4,6-dichloro-4,6-dideoxy-α-D-galactopyranosyl-1,6-dichloro-1,6-dideoxy-β-D-fructofuranoside]
- sweetness relative to sucrose [6]: many times sweeter than sucrose

SMILES: OC[C@H]1O[C@@](CCl)(O[C@H]2O[C@H](CO)[C@@H](O)[C@H](O)[C@H]2O)[C@@H](O)[C@@H]1O [Compound no. 1, 1'-chloro-1'-deoxysucrose]
- Mean pH (S. mutans [4]): 5.09
- adherence of the cells (S. mutans [5]; [7]): most active compounds at 0.5 hours
- adherence of the cells (S. mutans [5]; 4 hours): the most active
- % coverage after 0.5 hours (S. mutans [5]): 35.6%
- % coverage after 4 hours (S. mutans [5]): 52.3%
- sweetness relative to sucrose [6]: do not possess such strong sweetening action

SMILES: O[C@@H]1[C@@H](O)[C@@H](O[C@]2(CCl)O[C@H](CCl)[C@@H](O)[C@@H]2O)O[C@H](CCl)[C@H]1O [Compound no. 7, 6,1',6'-trichloro-6,1',6'-trideoxysucrose]
- Mean pH (S. mutans [4]): 6.48
- effect on acid production / pH (S. mutans [4]; statement in words, pooled 2, 3 and 4 hours): especially effective
- adherence of the cells (S. mutans [5]; [7]): most active compounds at 0.5 hours
- adherence of the cells (S. mutans [5]; 4 hours): the most active
- % coverage after 0.5 hours (S. mutans [5]): 29.7%
- % coverage after 4 hours (S. mutans [5]): 54.2%
- sweetness relative to sucrose [6]: many times sweeter than sucrose

SMILES: OC[C@H]1O[C@@](CO)(O[C@H]2O[C@H](CO)[C@H](Cl)[C@H](O)[C@H]2O)[C@@H](O)[C@@H]1O [compound 2, 4-chloro-4-deoxy-α-D-galactopyranosyl-β-D-fructofuranoside]
- sweetness relative to sucrose [6]: do not possess such strong sweetening action

SMILES: OC[C@@]1(O[C@H]2O[C@H](CCl)[C@H](Cl)[C@H](O)[C@H]2O)O[C@H](CCl)[C@@H](O)[C@@H]1O [Compound no. 6, 4,6-dichloro-4,6-dideoxy-α-D-galactopyranosyl-6-chloro-6-deoxy-β-D-fructofuranoside]
- Mean pH (S. mutans [4]): 5.20
- % coverage after 0.5 hours (S. mutans [5]): 51.6%
- % coverage after 4 hours (S. mutans [5]): 70.8%
- sweetness relative to sucrose [6]: do not possess such strong sweetening action
